From PMC7093416, “Selective USP7 inhibition elicits cancer cell killing through a p53-dependent mechanism” (Scientific Reports, 2020)
“And” between values parts separate entries of the source, which are not always exact repeats. Identical values can stand only once.

Test system: panel of 484 cancer cell lines
Test: PRISM cancer cell line profiling, 5 days
Assay type: cell-based
Design: Viability: scale not given here; AUC: unit not given beside the values
Protocol: Cancer cell line profiling was performed using the Broad’s PRISM platform. Cell treatment and data analysis were performed as described in Yu et al[42]. Raw Luminex signal was converted to AUC values for each cell line as described. The resulting AUC profile for each compound was modeled against DepMap using the limma package in R[71]. Because hotspot mutation analysis was performed against DepMap, TP53 annotations in Fig. 6c,d are directly from DepMap.

[1] = HEC59_ENDOMETRIUM, pert_dose 6.10E-04
[2] = HEC108_ENDOMETRIUM, pert_dose 6.10E-04
[3] = HEC151_ENDOMETRIUM, pert_dose 6.10E-04
[4] = HEP3B217_LIVER, pert_dose 6.10E-04
[5] = HEYA8_OVARY, pert_dose 6.10E-04
[6] = HPAC_PANCREAS, pert_dose 6.10E-04
[7] = HS294T_SKIN, pert_dose 6.10E-04
[8] = HS618T_LUNG, pert_dose 6.10E-04
[9] = HS729_SOFT_TISSUE, pert_dose 6.10E-04
[10] = HS766T_PANCREAS, pert_dose 6.10E-04
[11] = HS852T_SKIN, pert_dose 6.10E-04
[12] = HS939T_SKIN, pert_dose 6.10E-04
[13] = HSC2_UPPER_AERODIGESTIVE_TRACT, pert_dose 6.10E-04
[14] = HSC3_UPPER_AERODIGESTIVE_TRACT, pert_dose 6.10E-04
[15] = HT29_LARGE_INTESTINE, pert_dose 6.10E-04
[16] = HT55_LARGE_INTESTINE, pert_dose 6.10E-04
[17] = HUCCT1_BILIARY_TRACT, pert_dose 6.10E-04
[18] = HUH28_BILIARY_TRACT, pert_dose 6.10E-04
[19] = IGROV1_OVARY, pert_dose 6.10E-04
[20] = IPC298_SKIN, pert_dose 6.10E-04

## COc1ccc(C2=N[C@@H](c3ccc(Cl)cc3)[C@@H](c3ccc(Cl)cc3)N2C(=O)N2CCNC(=O)C2)c(OC(C)C)c1 [Nutlin-3A]
HEC59_ENDOMETRIUM
  AUC: 1.062
[1]
  MFI HEC59_ENDOMETRIUM: 10418.5 and 8852 and 7376 and 10636 and 7469
  Viability: 1.236
HEC108_ENDOMETRIUM
  AUC: 0.9813
[2]
  MFI HEC108_ENDOMETRIUM: 22169.5 and 21680 and 21571 and 20999 and 14974
  Viability: 1.448
HEC151_ENDOMETRIUM
  AUC: 0.8923
[3]
  MFI HEC151_ENDOMETRIUM: 15512 and 13471 and 16551 and 13036 and 13374
  Viability: 1.158
HEC251_ENDOMETRIUM
  AUC: 1.051
HEC265_ENDOMETRIUM
  AUC: 0.862
HEC265_ENDOMETRIUM, pert_dose 6.10E-04
  Viability: 1.3422
HEP3B217_LIVER
  AUC: 1.168
[4]
  MFI HEP3B217_LIVER: 4895 and 4355 and 5398 and 5541 and 7085.5
  Viability: 1.05
HEYA8_OVARY
  AUC: 0.8732
[5]
  MFI HEYA8_OVARY: 14485.5 and 11701.5 and 12129 and 10947 and 12823
  Viability: 1.321
HGC27_STOMACH
  AUC: 1.116
HLF_LIVER
  AUC: 1.153
HMC18_BREAST
  AUC: 1.214
HMC18_BREAST, pert_dose 6.10E-04
  MFI HMC18_BREAST: 29555.5 and 31726 and 28535 and 27291 and 25031.5
HOS_BONE
  AUC: 1.0473
HOS_BONE, pert_dose 6.10E-04
  MFI HOS_BONE: 25115 and 17203.5 and 23311.5 and 23304 and 24478
  Viability: 1.257
HPAC_PANCREAS
  AUC: 1.491
[6]
  MFI HPAC_PANCREAS: 14040 and 13836.5 and 12138 and 14386 and 13656
  Viability: 1.593
HS294T_SKIN
  AUC: 0.8649
[7]
  MFI HS294T_SKIN: 15509 and 11081.5 and 12624.5 and 16477 and 13812.5
  Viability: 1.3841
HS618T_LUNG
  AUC: 1.119
[8]
  MFI HS618T_LUNG: 423.5 and 422.5 and 583 and 491 and 486.5
  Viability: 1.131
HS729_SOFT_TISSUE
  AUC: 1.053
[9]
  MFI HS729_SOFT_TISSUE: 5267.5 and 3467.5 and 6111 and 4197 and 4598
  Viability: 1.333
HS766T_PANCREAS
  AUC: 1.165
[10]
  MFI HS766T_PANCREAS: 2873 and 4107.5 and 4713 and 3779 and 3684
  Viability: 0.8691
HS852T_SKIN
  AUC: 0.95
[11]
  MFI HS852T_SKIN: 952 and 665.5 and 666.5 and 706 and 781.5
  Viability: 1.404
HS939T_SKIN
  AUC: 0.8847
[12]
  MFI HS939T_SKIN: 1676 and 1756.5 and 2260 and 2253 and 2240
  Viability: 0.6815
HS944T_SKIN
  AUC: 1.082
HSC2_UPPER_AERODIGESTIVE_TRACT
  AUC: 0.986
[13]
  MFI HSC2_UPPER_AERODIGESTIVE_TRACT: 16228 and 12093.5 and 8568 and 11207.5 and 10414
  Viability: 1.409
HSC3_UPPER_AERODIGESTIVE_TRACT
  AUC: 1.141
[14]
  MFI HSC3_UPPER_AERODIGESTIVE_TRACT: 19468 and 21785 and 24258 and 21275 and 18776
  Viability: 1.0036
HT29_LARGE_INTESTINE
  AUC: 1.34
[15]
  MFI HT29_LARGE_INTESTINE: 15605 and 16428.5 and 18104 and 14824 and 17298
  Viability: 1.215
HT55_LARGE_INTESTINE
  AUC: 1.149
[16]
  MFI HT55_LARGE_INTESTINE: 18343 and 20659.5 and 20881.5 and 14879 and 18638
  Viability: 1.081
HT144_SKIN
  AUC: 0.8778
HT1080_SOFT_TISSUE
  AUC: 0.7842
HT1376_URINARY_TRACT
  AUC: 1.193
HUCCT1_BILIARY_TRACT
  AUC: 1.095
[17]
  MFI HUCCT1_BILIARY_TRACT: 24976 and 22701 and 21301.5 and 24041 and 22645
  Viability: 1.1214
HUH6_LIVER
  AUC: 1.038
HUH6_LIVER, pert_dose 6.10E-04
  MFI HUH6_LIVER: 2954 and 3148.5 and 3422 and 2906 and 2817
  Viability: 1.443
HUH7_LIVER
  AUC: 1.414
HUH7_LIVER, pert_dose 6.10E-04
  MFI HUH7_LIVER: 2519 and 3872.5 and 2817 and 4186 and 2978
  Viability: 1.154
HUH28_BILIARY_TRACT
  AUC: 1.075
[18]
  MFI HUH28_BILIARY_TRACT: 10419.5 and 14552 and 18877 and 11771 and 16814
  Viability: 1.064
HUPT3_PANCREAS
  AUC: 1.108
HUPT3_PANCREAS, pert_dose 6.10E-04
  MFI HUPT3_PANCREAS: 6399 and 3235.5 and 3378 and 3719 and 5662
IALM_LUNG
  AUC: 1.093
IALM_LUNG, pert_dose 6.10E-04
  MFI IALM_LUNG: 15214 and 17539 and 16640 and 15373 and 14718
  Viability: 0.9343
IGR1_SKIN
  AUC: 0.9397
IGR1_SKIN, pert_dose 6.10E-04
  MFI IGR1_SKIN: 9685 and 12749 and 10992 and 10674 and 10187.5
  Viability: 1.096
IGR37_SKIN
  AUC: 1.088
IGR37_SKIN, pert_dose 6.10E-04
  Viability: 0.7539
IGROV1_OVARY
  AUC: 0.9652
[19]
  MFI IGROV1_OVARY: 16733 and 14037 and 9860 and 14121 and 11292
  Viability: 1.232
IM95_STOMACH
  AUC: 0.8918
IPC298_SKIN
  AUC: 1.102
[20]
  MFI IPC298_SKIN: 24999 and 31830 and 20542 and 28455.5 and 32422
  Viability: 1.1324
ISHIKAWAHERAKLIO02ER_ENDOMETRIUM
  AUC: 1.148
